Measured values as given in patent US20260317299A1, “PIKFYVE PROTEIN KINASE DEGRADATION AGENT AND USE THEREOF” (Shanghai Institute of Organic Chemistry, Chinese Academy of …, priority 2023, published 2026).

Biological target: T1, PIKfyve (Homo sapiens, UniProt Q9Y2I7)
T1 construct: endogenous in cells; host or cells: VCaP
Assay: Degradation of PIKfyve proteins in VCaP tumor cells (24 h, Western blot)
Type: cell-based
Settings: 37° C., compared with DMSO control, WB, read-out: DC50 (concentration that achieves 50% degradation activity)
Experimental: Method: 200 μL of cells at a density of 5×10^6 cells/ml were inoculated into a 6-well plate, and then different concentrations of drugs were added. The cells were treated at 37° C. for 24 h. The […] was collected and washed with PBS twice. Then, 100-200 μL of 1×SDS lysate was added, and the cell lysate was collected into a centrifuge tube. The cells were disrupted ultrasonically for 10-20 sec, and boiled for 10 min. Protein samples were subjected to SDS-PAGE electrophoresis at a voltage of 90 V, transferred to PVDF membranes at 110 V, blocked with 5% BSA for 4 h, incubated with primary antibodies (PIKfyve, GAPDH) at 4° C. overnight, and incubated with secondary antibodies (anti-Rabbit IgG or anti-Mouse IgG) at room temperature. The membranes were washed with TBST buffer, developed with an ECL developing solution, and then imaged to obtain protein band signals, with single-concentration WB results as shown in FIG. 1. Compared with the DMSO control group, the concentration that achieves 50% degradation activity is defined as DC50.

T1 sequence (Q9Y2I7 whole entry): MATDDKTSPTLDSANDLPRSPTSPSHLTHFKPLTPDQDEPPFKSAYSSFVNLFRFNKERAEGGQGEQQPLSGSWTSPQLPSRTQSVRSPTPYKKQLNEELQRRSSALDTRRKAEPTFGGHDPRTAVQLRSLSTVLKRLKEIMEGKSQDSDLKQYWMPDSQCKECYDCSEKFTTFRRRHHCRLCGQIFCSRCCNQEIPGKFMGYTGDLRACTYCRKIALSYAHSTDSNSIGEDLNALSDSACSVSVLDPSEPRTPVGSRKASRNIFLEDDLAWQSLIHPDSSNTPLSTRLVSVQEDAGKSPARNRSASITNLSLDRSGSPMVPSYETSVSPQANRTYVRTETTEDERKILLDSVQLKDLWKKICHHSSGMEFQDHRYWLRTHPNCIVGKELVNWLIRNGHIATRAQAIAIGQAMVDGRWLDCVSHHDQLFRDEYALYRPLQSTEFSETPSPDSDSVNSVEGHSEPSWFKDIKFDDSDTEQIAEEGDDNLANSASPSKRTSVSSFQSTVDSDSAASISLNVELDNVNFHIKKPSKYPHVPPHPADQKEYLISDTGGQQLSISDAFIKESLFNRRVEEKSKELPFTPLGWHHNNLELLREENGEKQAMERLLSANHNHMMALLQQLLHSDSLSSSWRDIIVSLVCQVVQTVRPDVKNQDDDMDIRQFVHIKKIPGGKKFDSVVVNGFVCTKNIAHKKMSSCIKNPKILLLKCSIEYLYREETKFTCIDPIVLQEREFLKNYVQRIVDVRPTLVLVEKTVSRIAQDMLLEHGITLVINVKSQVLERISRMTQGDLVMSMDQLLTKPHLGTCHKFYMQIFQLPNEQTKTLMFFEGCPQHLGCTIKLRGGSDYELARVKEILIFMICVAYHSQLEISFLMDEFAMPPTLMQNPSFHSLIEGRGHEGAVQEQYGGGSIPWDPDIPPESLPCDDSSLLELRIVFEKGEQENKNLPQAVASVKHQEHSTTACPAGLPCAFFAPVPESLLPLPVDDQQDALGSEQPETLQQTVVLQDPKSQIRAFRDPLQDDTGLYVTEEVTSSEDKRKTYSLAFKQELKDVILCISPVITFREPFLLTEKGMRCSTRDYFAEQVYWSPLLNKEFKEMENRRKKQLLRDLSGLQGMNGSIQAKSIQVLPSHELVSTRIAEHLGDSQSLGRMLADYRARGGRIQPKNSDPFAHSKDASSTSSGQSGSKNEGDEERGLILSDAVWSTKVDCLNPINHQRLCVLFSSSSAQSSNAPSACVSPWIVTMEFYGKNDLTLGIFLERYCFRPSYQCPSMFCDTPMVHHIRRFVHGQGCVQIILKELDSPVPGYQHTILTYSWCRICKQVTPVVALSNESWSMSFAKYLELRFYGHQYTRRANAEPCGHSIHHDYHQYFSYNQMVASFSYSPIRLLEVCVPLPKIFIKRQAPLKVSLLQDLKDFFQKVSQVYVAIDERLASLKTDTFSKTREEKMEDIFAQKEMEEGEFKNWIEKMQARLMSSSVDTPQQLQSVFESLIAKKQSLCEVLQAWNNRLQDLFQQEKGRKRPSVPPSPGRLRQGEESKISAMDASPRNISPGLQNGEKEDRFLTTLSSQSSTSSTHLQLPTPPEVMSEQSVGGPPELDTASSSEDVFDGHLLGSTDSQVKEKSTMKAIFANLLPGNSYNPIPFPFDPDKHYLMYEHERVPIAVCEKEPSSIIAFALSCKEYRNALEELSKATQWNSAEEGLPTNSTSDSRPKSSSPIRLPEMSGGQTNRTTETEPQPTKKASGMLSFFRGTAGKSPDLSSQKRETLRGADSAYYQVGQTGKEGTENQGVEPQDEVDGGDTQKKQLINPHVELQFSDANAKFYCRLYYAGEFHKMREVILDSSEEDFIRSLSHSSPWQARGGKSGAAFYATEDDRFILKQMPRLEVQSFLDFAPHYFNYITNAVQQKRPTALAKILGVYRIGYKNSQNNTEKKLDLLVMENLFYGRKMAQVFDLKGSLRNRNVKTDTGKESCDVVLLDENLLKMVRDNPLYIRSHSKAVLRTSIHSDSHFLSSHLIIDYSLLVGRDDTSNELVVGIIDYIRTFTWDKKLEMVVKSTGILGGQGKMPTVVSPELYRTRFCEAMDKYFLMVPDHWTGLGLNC

Row | Compound | DC50 [µM]
1 | Cc1cccc(/C=N/Nc2cc(N3CCOCC3)nc(OCCc3ccc(NC(=O)CCCNc4ccc5c(c4)C(=O)N(C4CCC(=O)NC4=O)C5=O)cc3)n2)c1 (stereo not shown) [Example 16, (E)-4-((2-(2,6-dioxopiperidin-3-yl)-1,3-dioxoisoindolin-5-yl)amino)-N-(4-(2-((4-(2-(3-methylbenzylidene)hydrazino)-6-morpholinopyrimidin-2-yl)oxy)ethyl)phenyl) butanamide] | 0.1 to 10
2 | Cc1cccc(-c2ccn(-c3cc(N4CCOCC4)nc(OCCc4ccc(NC(=O)NC5CN(C(=O)C[C@H](NC(=O)[C@@H]6C[C@@H](O)CN6C(=O)[C@@H](NC(=O)C6(F)CC6)C(C)(C)C)c6ccc(-c7scnc7C)cc6)C5)cc4)n3)n2)c1 [Example 73, (2S,4R)-1-((S)-2-(1-fluorocyclopropane-1-carboxamido)-3,3-dimethylbutanoyl)-4-hydroxy-N—((S)-1-(4-(4-methylthiazol-5-yl)phenyl)-3-(3-(3-(4-(2-((4-morpholino-6-(3-(m-tolyl)-1H-pyrazol-1-yl)pyrimidin-2-yl)oxy)ethyl)phenyl)ureido)azetidin-1-yl)-3-oxopropyl) pyrrolidine-2-carboxamide] | 0.001 to 0.1
3 | Cc1cccc(/C=N/Nc2cc(N3CCOCC3)nc(OCCc3ccc(NC(=O)CCCCC(=O)Nc4ccc5c(c4)C(=O)N(C4CCC(=O)NC4=O)C5)cc3)n2)c1 (stereo not shown) [Example 29, (E)-N^1-(2-(2,6-dioxopiperidin-3-yl)-3-oxoisoindolin-5-yl)-N^6-(4-(2-((4-(2-(3-methylbenzylidene)hydrazino)-6-morpholinopyrimidin-2-yl)oxy)ethyl)phenyl)adipamide] | 0.001 to 0.1
4 | Cc1cccc(-c2ccn(-c3cc(N4CCOCC4)nc(Oc4ccc(N5CCN(CC6CCN(c7cc8c(cc7F)C(=O)N(C7CCC(=O)NC7=O)C8=O)CC6)CC5)cc4)n3)n2)c1 (stereo not shown) [Example 96, 2-(2,6-Dioxopiperidin-3-yl)-5-fluoro-6-(4-((4-(4-((4-morpholino-6-(3-(m-tolyl)-1H-pyrazol-1-yl)pyrimidin-2-yl)oxy)phenyl)piperazin-1-yl)methyl)piperidin-1-yl)isoindoline-1,3-dione] | 0.1 to 10
5 | Cc1cccc(-c2ccn(-c3cc(N4CCOCC4)nc(OCCc4ccc(N5CCN(C(=O)CCCC[C@H](NC(=O)[C@@H]6C[C@@H](O)CN6C(=O)[C@@H](NC(=O)C6(F)CC6)C(C)(C)C)c6ccc(-c7scnc7C)cc6)CC5)cc4)n3)n2)c1 [Example 77, (2S,4R)-1-((S)-2-(1-fluorocyclopropane-1-carboxamido)-3,3-dimethylbutanoyl)-4-hydroxy-N—((S)-1-(4-(4-methylthiazol-5-yl)phenyl)-6-(4-(4-(2-((4-morpholino-6-(3-(m-tolyl)-1H-pyrazol-1-yl)pyrimidin-2-yl)oxy)ethyl)phenyl)piperazin-1-yl)-6-oxohexyl)pyrrolidine-2-carboxamide] | 0.001 to 0.1
6 | Cc1cccc(/C=N/Nc2cc(N3CCOCC3)nc(OCCc3ccc(NC(=O)CCC(=O)N[C@H](C(=O)N4C[C@H](O)C[C@H]4C(=O)NCc4ccc(-c5scnc5C)cc4)C(C)(C)C)cc3)n2)c1 [Example 37, N^1—((S)-1-((2S,4R)-4-hydroxy-2-((4-(4-methylthiazol-5-yl)benzyl)carbamoyl)pyrrolidine-1-yl)-3,3-dimethyl-1-oxobutan-2-yl)-N^4-(4-(2-((4-(2-((E)-3-methylbenzylidene) hydrazino)-6-morpholinopyrimidin-2-yl)oxy)ethyl)phenyl)succinimide] | 0.1 to 10
7 | Cc1cccc(/C=N/Nc2cc(N3CCOCC3)nc(OCCc3ccc(NC(=O)CCCCCCCCCC(=O)N[C@H](C(=O)N4C[C@H](O)C[C@H]4C(=O)NCc4ccc(-c5scnc5C)cc4)C(C)(C)C)cc3)n2)c1 [Example 44, N^1—((S)-1-((2S,4R)-4-hydroxy-2-((4-(4-methylthiazol-5-yl)benzyl)carbamoyl)pyrrolidine-1-yl)-3,3-dimethyl-1-oxobutan-2-yl)-N^11-(4-(2-((4-(2-((E)-3-methylbenzylidene) hydrazino)-6-morpholinopyrimidin-2-yl)oxy)ethyl)phenyl)undecanediamide] | 0.001 to 0.1
8 | Cc1cccc(/C=N/Nc2cc(N3CCOCC3)nc(OCCNC(=O)CCCCCCC(=O)N[C@H](C(=O)N3C[C@H](O)C[C@H]3C(=O)NCc3ccc(-c4scnc4C)cc3)C(C)(C)C)n2)c1 [Example 63, N^1—((S)-1-((2S,4R)-4-hydroxy-2-((4-(4-methylthiazol-5-yl)benzyl)carbamoyl)pyrrolidine-1-yl)-3,3-dimethyl-1-oxobutan-2-yl)-N-(2-((4-(2-((E)-3-methylbenzylidene) hydrazino)-6-morpholinopyrimidin-2-yl)oxy)ethyl)octanediamide] | 0.1 to 10
9 | Cc1cccc(/C=N/Nc2cc(N3CCOCC3)nc(OCCc3ccc(NC(=O)CCCCCNc4cccc5c4C(=O)N(C4CCC(=O)NC4=O)C5=O)cc3)n2)c1 (stereo not shown) [Example 13, (E)-6-((2-(2,6-dioxopiperidin-3-yl)-1,3-dioxoisoindolin-4-yl)amino)-N-(4-(2-((4-(2-(3-methylbenzylidene)hydrazino)-6-morpholinopyrimidin-2-yl)oxy)ethyl)phenyl)hexanamide] | 0.1 to 10
10 | Cc1cccc(-c2ccn(-c3cc(N4CCOCC4)nc(OCCc4ccc(N5CCN(C(=O)C[C@H](NC(=O)[C@@H]6C[C@@H](O)CN6C(=O)[C@@H](NC(=O)C6(F)CC6)C(C)(C)C)c6ccc(-c7scnc7C)cc6)CC5)cc4)n3)n2)c1 [Example 75, (2S,4R)-1-((S)-2-(1-fluorocyclopropane-1-carboxamido)-3,3-dimethylbutanoyl)-4-hydroxy-N—((S)-1-(4-(4-methylthiazol-5-yl)phenyl)-3-(4-(4-(2-((4-morpholino-6-(3-(m-tolyl)-1H-pyrazol-1-yl)pyrimidin-2-yl)oxy)ethyl)phenyl)piperazin-1-yl)-3-oxopropyl)pyrrolidine-2-carboxamide] | 0.001 to 0.1
11 | Cc1cccc(-c2ccn(-c3cc(N4CCOCC4)nc(OC4CCN(c5ccc(N6CCN(C(=O)C[C@H](NC(=O)[C@@H]7C[C@@H](O)CN7C(=O)[C@@H](NC(=O)C7(F)CC7)C(C)(C)C)c7ccc(-c8scnc8C)cc7)CC6)cc5)CC4)n3)n2)c1 [Example 84, (2S,4R)-1-((S)-2-(1-fluorocyclopropane-1-carboxamido)-3,3-dimethylbutanoyl)-4-hydroxy-N—((S)-1-(4-(4-methylthiazol-5-yl)phenyl)-3-(4-(4-(4-((4-morpholino-6-(3-(m-tolyl)-1H-pyrazol-1-yl)pyrimidin-2-yl)oxy)piperidin-1-yl)phenyl)piperazin-1-yl)-3-oxopropyl) pyrrolidine-2-carboxamide] | 0.001 to 0.1
12 | Cc1cccc(/C=N/Nc2cc(N3CCOCC3)nc(OCCc3ccc(NC(=O)CCCCCNC(=O)CSC(C)(C)[C@H](NC(=O)C4(F)CC4)C(=O)N4C[C@H](O)C[C@H]4C(=O)NCc4ccc(-c5scnc5C)cc4)cc3)n2)c1 [Example 60, (2S,4R)-1-((R)-2-(1-fluorocyclopropane-1-carboxamido)-3-methyl-3-((2-((6-((4-(2-((4-(2-((E)-3-methylbenzylidene)hydrazino)-6-morpholinopyrimidin-2-yl)oxy)ethyl)phenyl)amino)-6-oxohexyl)amino)-2-oxoethyl)thio)butanoyl)-4-hydroxy-N-(4-(4-methylthiazol-5-yl)benzyl)pyrrolidine-2-carboxamide] | 0.1 to 10
13 | Cc1cccc(-c2ccn(-c3cc(N4CCOCC4)nc(OC4CCN(c5ccc(N6CCN(c7cc8c(cc7F)C(=O)N(C7CCC(=O)NC7=O)C8=O)CC6)cc5)CC4)n3)n2)c1 (stereo not shown) [Example 89, 2-(2,6-Dioxopiperidin-3-yl)-5-fluoro-6-(4-(4-(4-((4-morpholino-6-(3-(m-tolyl)-1H-pyrazol-1-yl)pyrimidin-2-yl)oxy)piperidin-1-yl)phenyl)piperazin-1-yl)isoindoline-1,3-dione] | 0.1 to 10
14 | Cc1cccc(/C=N/Nc2cc(N3CCOCC3)nc(OCCc3ccc(NC(=O)CNC(=O)CC[C@H](NC(=O)[C@@H]4C[C@@H](O)CN4C(=O)[C@@H](NC(=O)C4(F)CC4)C(C)(C)C)c4ccc(-c5scnc5C)cc4)cc3)n2)c1 [Example 50, (2S,4R)-1-((S)-2-(1-fluorocyclopropane-1-carboxamido)-3,3-dimethylbutanoyl)-4-hydroxy-N—((S)-4-((2-((4-(2-((4-(2-((E)-3-methylbenzylidene)hydrazino)-6-morpholinopyrimidin-2-yl)oxy)ethyl)phenyl)amino)-2-oxoethyl)amino)-1-(4-(4-methylthiazol-5-yl)phenyl)4-oxobutyl)pyrrolidine-2-carboxamide] | 0.001 to 0.1
15 | Cc1cccc(/C=N/Nc2cc(N3CCOCC3)nc(OCCc3ccc(NC(=O)CCCCCCCCCCC(=O)Nc4cccc5c4CN(C4CCC(=O)NC4=O)C5=O)cc3)n2)c1 (stereo not shown) [Example 23, (E)-N^1-(2-(2,6-dioxopiperidin-3-yl)-1-oxoisoindolin-4-yl)-N^12-(4-(2-((4-(2-(3-methylbenzylidene)hydrazino)-6-morpholinopyrimidin-2-yl)oxy)ethyl)phenyl)dodecanediamide] | 0.1 to 10
16 | Cc1cccc(/C=N/Nc2cc(N3CCOCC3)nc(OCCNC(=O)CCCCC(=O)N[C@H](C(=O)N3C[C@H](O)C[C@H]3C(=O)NCc3ccc(-c4scnc4C)cc3)C(C)(C)C)n2)c1 [Example 62, N^1—((S)-1-((2S,4R)-4-hydroxy-2-((4-(4-methylthiazol-5-yl)benzyl)carbamoyl)pyrrolidine-1-yl)-3,3-dimethyl-1-oxobutan-2-yl)-N^6-(2-((4-(2-((E)-3-methylbenzylidene) hydrazino)-6-morpholinopyrimidin-2-yl)oxy)ethyl)adipamide] | 0.1 to 10
